Measurements from patent US10294202B2, “Pyrrolidinones as herbicides” (FMC Corporation, priority 2013, dated 2019).
Read-outs that look alike come from different tables or passages of the source.

Experiments:
[1] = system: barnyardgrass; test: Test A pre-/postemergence herbicide test; assay type: in vivo, Echinochloa crus-galli; settings: for pest or weed control at 500 g/ha: 0 to 100 scale (0 no effect, 100 complete control)
Summary of the method: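 Directed soil spray to seeded pots (preemergence) or spray onto one- to two-leaf seedlings 2–10 cm tall (postemergence); loam/sand substrate throughout. Evaluated visually after about 10 days against untreated plants, 0 = no effect, 100 = complete control.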

[2] = system: rice; test: Test B flooded paddy test; assay type: in vivo, Oryza sativa; settings: Flood, scale of 0 to 100 where 0 is no effect and 100 is complete control
Summary of the method: (§1)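 In-water application to pots flooded 3 cm deep, plants at 2-leaf stage. Held in greenhouse 13–15 days at constant flood depth. Scored 0–100 by eye against controls.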

[3] = system: barnyardgrass; test: Test B flooded paddy test; assay type: in vivo, Echinochloa crus-galli; settings: Flood, scale of 0 to 100 where 0 is no effect and 100 is complete control
Summary of the method: as §1

[4] = system: blackgrass; test: Test C pre-/postemergence herbicide test; assay type: in vivo, Alopecurus myosuroides; settings: for Blackgrass plant response rating: scale 0 to 100, 0 is no effect and 100 is complete control
Summary of the method: (§2)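 Two application timings ran in parallel with identically formulated test chemicals (non-phytotoxic solvent, surfactant included): spray on seeded loam–sand soil, and spray on emerged plants 2 to 18 cm high. Evaluation at 13 to 15 days compared each species with controls, rated from 0 up to 100.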

[5] = system: galium; test: Test C pre-/postemergence herbicide test; assay type: in vivo, Galium aparine
Summary of the method: as §2

[6] = system: corn; test: Test C pre-/postemergence herbicide test; assay type: in vivo, Zea mays
Summary of the method: as §2

[7] = system: crabgrass, large; test: Test C pre-/postemergence herbicide test; assay type: in vivo, Digitaria sanguinalis
Summary of the method: as §2

[8] = system: foxtail, giant; test: Test C pre-/postemergence herbicide test; assay type: in vivo, Setaria faberii
Summary of the method: as §2

[9] = system: lambsquarters; test: Test C pre-/postemergence herbicide test; assay type: in vivo, Chenopodium album
Summary of the method: as §2

[10] = system: pigweed; test: Test C pre-/postemergence herbicide test; assay type: in vivo, Amaranthus retroflexus
Summary of the method: as §2

[11] = system: velvetleaf; test: Test C pre-/postemergence herbicide test; assay type: in vivo, Abutilon theophrasti
Summary of the method: as §2

[12] = Postemergence, 31 g ai/ha, scale 0 to 100 (0 no effect, 100 complete control)
[13] = Postemergence, 62 g ai/ha, scale 0 (no effect) to 100 (complete control)
[14] = Postemergence, 125 g ai/ha, scale 0 to 100 (0 no effect, 100 complete control)
[15] = Postemergence, 250 g ai/ha, scale 0 to 100 (0 no effect, 100 complete control)
[16] = Preemergence, 62 g ai/ha, scale 0 to 100
[17] = Preemergence, 125 g ai/ha, scale 0 to 100 (0 no effect, 100 complete control)
[18] = Preemergence, 31 g ai/ha, scale 0 to 100, 0 is no effect and 100 is complete control
[19] = Preemergence, 62 g ai/ha, scale 0 to 100 (0 no effect, 100 complete control)
[20] = Postemergence, 31 g ai/ha, scale 0 (no effect) to 100 (complete control)
[21] = Postemergence, 62 g ai/ha, scale 0 to 100 (0 no effect, 100 complete control)

O=C1NCC(c2cccc(OC(F)F)c2)C1C(=O)Nc1cccc(F)c1F (stereo not shown) [Compound 224]
55: Plant response rating, Crabgrass, Large [7, 14] | Lambsquarters plant response rating [9, 18] | Plant response rating, Pigweed [10, 13]
70: Plant response rating, Barnyardgrass ([3]; 500 g ai/ha) | Plant response rating, Blackgrass [4, 17] | Plant response rating, Lambsquarters [9, 14]
65: Plant response rating, Blackgrass [4, 16] | Lambsquarters plant response rating [9, 19] | Plant response rating, Pigweed [10, 15]
50: Plant response rating, Lambsquarters [9, 13]
60: Plant response rating, Galium [5, 14] | Plant response rating, Foxtail, Giant [8, 14] | Plant response rating, Lambsquarters [9, 15] | Plant response rating, Pigweed [10, 14] | Plant response rating, Pigweed [10, 17]
0: Plant response rating, Rice ([2]; 500 g ai/ha) | Plant response rating, Blackgrass [4, 12] | Plant response rating, Blackgrass [4, 13] | Plant response rating, Blackgrass [4, 14] | Plant response rating, Blackgrass [4, 15] | Blackgrass plant response rating ([4]; Preemergence, 31 g ai/ha) | Galium plant response rating [5, 18] | Plant response rating, Corn [6, 12] | Plant response rating, Corn [6, 13] | Corn plant response rating [6, 19] | Plant response rating, Crabgrass, Large [7, 12] | Plant response rating, Foxtail, Giant [8, 12] | Plant response rating, Foxtail, Giant [8, 13] | Pigweed plant response rating [10, 18] | Plant response rating, Velvetleaf [11, 12] | Plant response rating, Velvetleaf [11, 13] | Velvetleaf plant response rating [11, 18]
95: Plant response rating, Foxtail, Giant [8, 17] | Plant response rating, Lambsquarters [9, 17] | Plant response rating (scale of 0 to 100), Lambsquarters ([9]; Preemergence, 250 g ai/ha)
100: Plant response rating (scale of 0 to 100), Crabgrass, Large ([7]; Preemergence, 250 g ai/ha)
5: Plant response rating, Galium [5, 12] | Plant response rating, Lambsquarters [9, 12] | Velvetleaf plant response rating [11, 19]
25: Pigweed plant response rating [10, 19] | Plant response rating, Velvetleaf [11, 14]
10: Plant response rating, Corn [6, 14] | Plant response rating, Corn [6, 15] | Corn plant response rating [6, 18]
98: Plant response rating (scale of 0 to 100), Foxtail, Giant ([8]; Preemergence, 250 g ai/ha)
35: Plant response rating, Crabgrass, Large [7, 13] | Plant response rating, Foxtail, Giant [8, 15] | Plant response rating, Velvetleaf [11, 15]
90: Plant response rating, Barnyardgrass ([1]; 125 g ai/ha, visual rating, 0 to 100 scale, 0 no effect, 100 complete control, approximately 10 days, preemergence) | Barnyardgrass plant response rating (0 to 100 scale, 0 is no effect, 100 is complete control) ([1]; Postemergence, 500 g ai/ha) | Plant response rating, Barnyardgrass ([1]; preemergence, 500 g ai/ha, 0 to 100 scale, 0 is no effect and 100 is complete control) | Crabgrass, Large plant response rating [7, 18] | Crabgrass, Large plant response rating [7, 19] | Plant response rating, Crabgrass, Large [7, 17] | Foxtail, Giant plant response rating [8, 19]
75: Plant response rating, Crabgrass, Large [7, 15]
85: Plant response rating (scale of 0 to 100), Blackgrass ([4]; Preemergence, 250 g ai/ha) | Plant response rating, Galium [5, 15] | Plant response rating, Galium [5, 17] | Plant response rating (scale of 0 to 100), Galium ([5]; Preemergence, 250 g ai/ha) | Plant response rating, Corn [6, 17] | Plant response rating (scale of 0 to 100), Corn ([6]; Preemergence, 250 g ai/ha) | Plant response rating (scale of 0 to 100), Pigweed ([10]; Preemergence, 250 g ai/ha)
80: Plant response rating, Barnyardgrass ([1]; Postemergence, 125 g ai/ha, 0 to 100 scale, 0 is no effect, 100 is complete control) | Foxtail, Giant plant response rating [8, 18]
45: Plant response rating, Galium [5, 13] | Plant response rating, Velvetleaf [11, 17]
40: Galium plant response rating [5, 19] | Plant response rating, Pigweed [10, 12] | Plant response rating (scale of 0 to 100), Velvetleaf ([11]; Preemergence, 250 g ai/ha)

O=C1NCC(c2ccc(C(F)(F)F)cc2)C1C(=O)Nc1cccc(F)c1F (stereo not shown) [Compound 80, N-(2,3-difluorophenyl)-2-oxo-4-[4-(trifluoromethyl)phenyl]-3-pyrrolidinecarboxamide]
80%: pest or weed control at 125 g/ha ([1]; Echinochloa crus-galli, post-emergence, 240 h, Postemergence, 125 g ai/ha, 0 to 100 scale, 0 no effect, 100 complete control, read-out: Plant response rating, Barnyardgrass) | pest or weed control at 500 g/ha ([1]; Echinochloa crus-galli, post-emergence, 240 h, Postemergence, 500 g ai/ha, read-out: Plant response rating, Barnyardgrass) | pest or weed control at 500 g/ha ([1]; Echinochloa crus-galli, pre-emergence, 240 h, preemergence, 500 g ai/ha, read-out: Plant response rating, Barnyardgrass)
25: Plant response rating, Velvetleaf [11, 15]
75: Plant response rating, Crabgrass, Large [7, 15] | Plant response rating, Pigweed [10, 15] | Pigweed plant response rating [10, 18]
45: Plant response rating, Foxtail, Giant [8, 14] | Plant response rating, Foxtail, Giant [8, 15]
85: Plant response rating, Blackgrass [4, 17] | Plant response rating, Lambsquarters [9, 16]
65: Plant response rating, Galium [5, 14] | Plant response rating, Galium [5, 15] | Plant response rating (scale of 0 to 100), Corn ([6]; Preemergence, 250 g ai/ha) | Plant response rating, Crabgrass, Large [7, 14]
98: Plant response rating, Crabgrass, Large [7, 16] | Plant response rating, Crabgrass, Large [7, 17] | Plant response rating, Foxtail, Giant [8, 17] | Plant response rating (scale of 0 to 100), Foxtail, Giant ([8]; Preemergence, 250 g ai/ha)
40: Plant response rating, Crabgrass, Large [7, 21] | Lambsquarters plant response rating [9, 18] | Plant response rating, Pigweed [10, 20] | Plant response rating, Pigweed [10, 21]
50: Plant response rating (scale of 0 to 100), Velvetleaf ([11]; Preemergence, 250 g ai/ha)
0: Plant response rating, Rice ([2]; 250 g ai/ha) | Plant response rating, Blackgrass [4, 20] | Plant response rating, Blackgrass [4, 21] | Plant response rating, Blackgrass [4, 14] | Plant response rating, Corn [6, 20] | Corn plant response rating [6, 18] | Plant response rating, Corn [6, 16] | Plant response rating, Corn [6, 17] | Plant response rating, Foxtail, Giant [8, 20] | Plant response rating, Foxtail, Giant [8, 21] | Velvetleaf plant response rating [11, 18]
80: Barnyardgrass plant response rating ([1]; Preemergence, 125 g ai/ha, visual rating on 0 to 100 scale (0 no effect, 100 complete control)) | Plant response rating, Blackgrass [4, 16]
5: Plant response rating, Blackgrass [4, 15] | Plant response rating, Galium [5, 20] | Galium plant response rating [5, 18] | Plant response rating, Corn [6, 21] | Plant response rating, Corn [6, 14] | Plant response rating, Crabgrass, Large [7, 20]
30: Plant response rating, Barnyardgrass ([3]; 250 g ai/ha) | Blackgrass plant response rating ([4]; Preemergence, 31 g ai/ha) | Plant response rating, Velvetleaf [11, 16]
95: Crabgrass, Large plant response rating [7, 18] | Plant response rating, Foxtail, Giant [8, 16]
90: Plant response rating (scale of 0 to 100), Blackgrass ([4]; Preemergence, 250 g ai/ha) | Plant response rating, Galium [5, 16] | Plant response rating, Galium [5, 17] | Plant response rating (scale of 0 to 100), Galium ([5]; Preemergence, 250 g ai/ha) | Foxtail, Giant plant response rating [8, 18] | Plant response rating, Lambsquarters [9, 17] | Plant response rating (scale of 0 to 100), Lambsquarters ([9]; Preemergence, 250 g ai/ha) | Plant response rating, Pigweed [10, 16] | Plant response rating, Pigweed [10, 17] | Plant response rating (scale of 0 to 100), Pigweed ([10]; Preemergence, 250 g ai/ha)
10: Plant response rating, Corn [6, 15]
15: Plant response rating, Velvetleaf [11, 20] | Plant response rating, Velvetleaf [11, 21]
70: Plant response rating, Lambsquarters [9, 15]
35: Plant response rating, Velvetleaf [11, 17]
100: Plant response rating (scale of 0 to 100), Crabgrass, Large ([7]; Preemergence, 250 g ai/ha)
60: Plant response rating, Lambsquarters [9, 14] | Plant response rating, Pigweed [10, 14]
55: Plant response rating, Galium [5, 21] | Plant response rating, Lambsquarters [9, 20] | Plant response rating, Lambsquarters [9, 21]
